assay: T3 promoter assay cell test (luciferase reporter); type: cell-based; conditions: Homo sapiens; HepG2 cells, luciferase induction, costimulator retinoic acid, incubation 48 or 72 hours, four replicates
Description: Their activity can be tested, for example, in vitro by the following T3 promoter assay cell test:
The test is carried out with a stably transfected human HepG2 hepatocarcinoma cell which expresses a luciferase gene under the control of a thyroid hormone-regulated promoter. The vector used for the transfection has upstream of the luciferase gene a minimal thymidine kinase promoter with a thyroid hormone-responsive element (TRE) which consists of two inverted palindromes each of 12 bp and of an 8 bp spacer.
For the test, the cell cultures are seeded in Eagle's minimal essential medium in 96-well plates with the following additions: glutamine, tricine, sodium pyruvate, nonessential amino acids, insulin, selenium and transferrin. The cultures are grown at 37° C. with a 10% CO2 atmosphere for 48 hours. Then serial dilutions of test substance or reference compound (T3, T4) and costimulator retinoic acid are added to the test cultures and the latter are incubated as previously for a further 48 or 72 hours. Each substance concentration is tested in four replicates. To determine the luciferase induced by T3 or other substances, the cells are subsequently lysed by adding a Triton- and luciferin-containing buffer and measured immediately in a luminometer. The EC50 values for each compound are calculated (see Table 1).

Compared with `Cc1cc(NC(=O)C(=O)O)cc(C)c1Cc1ccc(O)c(C(C)C)c1` [Example 2, 2-[4-(4-Hydroxy-3-isopropylbenzyl)-3,5-dimethylanilino]-2-oxoacetic acid], `Cc1cc(NC(=O)C(=O)O)cc(C)c1Cc1ccc(O)c(Cc2ccc(F)cc2)c1` [Example 4, ({4-[3-(4-Fluorobenzyl)-4-hydroxybenzyl]-3,5-dimethylphenyl}amino)(oxo)acetic acid] is 1.6-fold higher in EC50: 0.14 nM for the first, 0.23 nM for the second.

`COc1ccc(Cc2c(C)cc(NC(=O)C(=O)O)cc2C)cc1Cc1ccc(F)cc1` [Example 5, ({4-[3-(4-Fluorobenzyl)-4-methoxybenzyl]-3,5-dimethylphenyl}amino)(oxo)acetic acid] gave an EC50 of 4.3 nM.

Reference: patent US6803480B2, “Diphenylmethane derivatives” (Bayer Aktiengesellschaft, priority 2000, dated 2004)
